Tests used:
Type in all cases: cell-based
Botrytis cinerea = assay: Example 1: activity against the grey mold Botrytis cinerea in the microtiterplate test; conditions: 31 ppm active substance; relative to compound-free control (100%); 405 nm, 7 days after inoculation
Fusarium culmorum = assay: Example 2: activity against Fusarium culmorum in the microtiterplate test; conditions: 31 ppm active substance; relative to compound-free control (100%); 405 nm, 7 days after inoculation
Protocol: The active compounds were formulated separately as a stock solution having a concentration of 10000 ppm in dimethyl sulfoxide.
The stock solutions were mixed according to the ratio, pipetted onto a micro titer plate (MTP) and diluted with water to the stated concentrations. A spore suspension of Fusarium culmorum in an aqueous biomalt or yeast-bactopeptone-glycerine or DOB solution was then added. The plates were placed in a water vapor-saturated chamber at a temperature of 18° C. Using an absorption photometer, the MTPs were measured at 405 nm 7 days after the inoculation.
(§1) The measured parameters were compared to the growth of the active compound-free control variant (100%) and the fungus-free blank value to determine the relative growth in % of the pathogens in the respective active compounds.

[1] = system: Colletotrichum orbiculare; assay: Comparative Example 3: activity against anthracnose caused by Colletotrichum orbiculare in the microtiterplate test; conditions: at 2 ppm; relative to compound-free control (100%); 405 nm, 7 days after inoculation
Protocol: (§2) The active compounds were formulated separately as a stock solution having a concentration of 10000 ppm in dimethyl sulfoxide. The stock solutions were mixed according to the ratio, pipetted onto a micro titer plate (MTP) and diluted with water to the stated concentrations. A spore suspension of Colletotrichum orbiculare in an aqueous bio malt solution was then added. The plates were placed in a water vapor-saturated chamber at a temperature of 18° C. Using an absorption photometer, the MTPs were measured at 405 nm 7 days after the inoculation.
as §1

Septoria tritici = assay: Comparative Example 1: activity against leaf blotch on wheat caused by Septoria tritici (microtiter plate); conditions: at 125 ppm; relative to compound-free control (100%); 405 nm, 7 days after inoculation
Protocol: as §2, with “Septoria tritici” for “Colletotrichum orbiculare”, “biomalt or yeast-bactopeptone-glycerine or DOB” for “bio malt”
as §1

Leptosphaeria nodorum = assay: Comparative Example 2: activity against wheat leaf spots caused by Leptosphaeria nodorum (microtiter plate); conditions: relative to compound-free control (100%), 405 nm, 7 days after inoculation
Protocol: as §2, with “Leptosphaeria nodorum” for “Colletotrichum orbiculare”, “biomalt or yeast-bactopeptone-glycerine or DOE” for “bio malt”
as §1

Compound | growth of the pathogen (Botrytis cinerea) [%] | growth of the pathogen (Fusarium culmorum) [%] | Growth (%) at 2 pm [1] [%] | Growth (%) at 125 pm (Septoria tritici) [%] | Growth (%) at 125 pm (Leptosphaeria nodorum) [%]
Cc1cc(C2=NC(C)(C(C)(C)C)Oc3ccccc32)cnc1C (stereo not shown) [Ex-2] | 0 |  |  |  | 
Cc1cc(C2=NC(C)(C(C)(C)C)Oc3ccccc32)cnc1C(F)F (stereo not shown) [Ex-3] | 0 |  |  |  | 
Cc1cc(C2=NC3(CCC(C)(C)C3)Oc3ccccc32)cnc1C (stereo not shown) [Ex-4] | 0 | 1 |  |  | 
Cc1cc(C2=NC(C)(C(C)C)Oc3ccccc32)cnc1C (stereo not shown) [Ex-5] | 0 |  |  |  | 
Cc1cc(C2=NC(C)(C)Oc3ccccc32)cnc1C [Ex-6] | 0 | 1 |  |  | 
Cc1cc(C2=NC(C)(c3ccc(Cl)cc3)Oc3ccccc32)cnc1C(F)F (stereo not shown) [Ex-51] |  |  | 22 | 46 | 15
Cc1cc(C2=NC(C)(Cc3ccc(F)cc3)Oc3ccccc32)cnc1C(F)F (stereo not shown) [Ex-58] |  |  | 55 | 73 | 8
CC1(c2ccc(Cl)cc2)N=C(c2ccc(Cl)nc2)c2ccccc2O1 (stereo not shown) [reference compound] |  |  | 88 | 69 | 47
CC1(Cc2ccc(F)cc2)N=C(c2ccc(Cl)nc2)c2ccccc2O1 (stereo not shown) [reference compound] |  |  | 96 | 93 | 43

Source: patent publication US20240294544A1, “NEW SUBSTITUTED PYRIDINES AS FUNGICIDES” (BASF SE, priority 2021, published 2024)
